Among the test systems are P388 leukemia; P388/ADR leukemia; RXF-631 renal.
Common to all, as to test: NCI tumour cell line growth inhibition, 48 h

This note sets out measurements from PubChem BioAssay (NCI).

SMILES strings stand for the structures. Values joined by “and” are separate entries in the source; they are usually repeats but may differ in a detail not shown here. Identical values can stand only once.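 Values below derive from 48-hour exposures of cells grown in 96-well plates, with endpoints linearly interpolated between the two concentrations bracketing the appropriate inhibition level. GI50 marks 50% less growth. Definition used: TGI = concentration required for complete inhibition of growth.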

`CC1NC(=O)CC(c2ccccc2)N(N=O)C1c1ccccc1` (configuration not stated): the TGI in the assay with P388 leukemia was over 57.8 µM; with P388/ADR leukemia, over 60.2 µM.
In the assay on RXF-631 renal, `O=P(Nc1ccc(Cl)cc1)(Oc1ccccc1)N(CCCl)CCCl` (configuration not stated) came in with a TGI of over 100 µM.
In the case of `COc1cc(/C=C(\C#N)C(N)=O)cc(Br)c1O`, in the assay with P388 leukemia, the GI50 was 85.3 µM and 44.5 µM; the TGI was over 100 µM. This compound also came in with a TGI in the assay on P388/ADR leukemia of over 100 µM.
Regarding `C=CCCN1CCc2c([nH]c3ccccc23)C1C(=O)O` (configuration not stated), in the assay on RXF-631 renal, the TGI is over 100 µM.
